The structures appear in SMILES notation. Activity calls are given as the source filed them.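 Rule for the calls: active = mean IC50 below 10 µM; inactive = the rest.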

In the assay the target is Apelin receptor (Homo sapiens) (UniProt P35414). In words: APJ antagonists, beta-arrestin recruitment, SAR follow-up, cell-based, luminescence, set 2 (AID 488803). The following applies: CHO-K1 APJ PathHunter beta-arrestin, antagonist. (Arrestin recruitment assays detect the binding of arrestin to an activated receptor.)
Chain of Apelin receptor (Homo sapiens) (P35414 whole entry, looked up): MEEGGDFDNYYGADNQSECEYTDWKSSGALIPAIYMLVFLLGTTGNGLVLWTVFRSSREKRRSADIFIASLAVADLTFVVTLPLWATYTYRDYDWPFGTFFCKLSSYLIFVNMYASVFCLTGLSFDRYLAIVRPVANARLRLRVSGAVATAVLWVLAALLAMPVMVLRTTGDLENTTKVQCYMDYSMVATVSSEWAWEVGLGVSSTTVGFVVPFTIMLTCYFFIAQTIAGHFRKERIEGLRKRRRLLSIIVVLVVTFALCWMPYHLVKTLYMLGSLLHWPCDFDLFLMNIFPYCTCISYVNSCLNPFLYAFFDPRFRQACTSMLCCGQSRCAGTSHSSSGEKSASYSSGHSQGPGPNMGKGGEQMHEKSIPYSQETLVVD
Take `Cc1cccc(C2CC3(CC(C)(C)NC(=O)N3)Oc3cc(O)c(Cl)cc32)c1` (stereo not given): the IC50 is > 79 µM (inactive).
As to `CCOc1ccc(C(=O)Oc2coc(CSc3ncccn3)cc2=O)cc1`, the IC50 was > 79 µM (inactive).
On to `Cc1ccccc1C1CC2(CC(C)(C)NC(=S)N2)Oc2cc(O)c(Cl)cc21` (stereo not given), for which the IC50 result is “inactive”.
The result for `CC1(C)CC2(CC(c3ccccc3Cl)c3ccc(O)cc3O2)NC(=S)N1` (stereo not given) reads 6.88 µM.
On to `C=CCOc1ccc(CSc2nccc(C)n2)cc1`, for which the IC50 was > 79 µM (inactive).
As to `Cc1cc(C)nc(SCc2cc(=O)c(OC(=O)c3cccc([N+](=O)[O-])c3C)co2)n1`, the IC50 was > 79 µM (inactive).
The result for `C=CCOc1ccc(COc2ccccc2)cc1` reads > 79 µM (inactive); that for `Cc1ccnc(SCc2cc(=O)c(OC(=O)c3ccc(C#N)cc3)co2)n1`, 8.51 µM.
Regarding `Cc1ccnc(SCc2cc(=O)c(OC(=O)c3ccc([N+](=O)[O-])cc3)co2)n1`, the IC50 was 4.32 µM.
Regarding `O=C(Oc1coc(CSc2ccccc2)cc1=O)c1ccc(Cl)c([N+](=O)[O-])c1`, the IC50 is 9.61 µM.
As to `Cc1ccccc1NCC(O)c1ccc(Cl)cc1` (stereo not given), the IC50 is > 79 µM (inactive).
`O=C(Oc1coc(CSc2ncccn2)cc1=O)c1ccc(C(F)(F)F)cc1`: the IC50 entry is “inactive”.
Take `Cc1cccc(C2CC3(CC(C)(C)NC(=S)N3)Oc3cc(O)cc(C)c32)c1` (stereo not given): the IC50 entry is “inactive”.
With `Cc1ccnc(SCc2cc(=O)c(OC(=O)c3ccc(OC(F)(F)F)cc3)co2)n1`, the IC50 is > 79 µM (inactive).
For the compound `Cc1ccnc(SCc2cc(=O)c(OC(=O)c3cccs3)co2)n1`, the IC50 was > 79 µM (inactive).
The result for `COc1ccc(C2CC3(CC(C)(C)NC(=S)N3)Oc3cc(OC(C)=O)cc(C)c32)cc1` (stereo not given) reads “inactive”.
For the compound `CC(=O)Oc1cc2c(cc1Cl)C(c1ccccc1Cl)CC1(CC(C)(C)NC(=S)N1)O2` (stereo not given), the IC50 is > 79 µM (inactive).
In the case of `COc1ccccc1NCC(O)c1ccc(Cl)cc1` (stereo not given), the IC50 is > 79 µM (inactive).
`Cc1cc(C)nc(SCc2cc(=O)c(O)co2)n1`: the IC50 is > 79 µM (inactive).
Turning to `Cc1ccnc(SCc2cc(=O)c(OC(=O)c3ccccc3Cl)co2)n1`, the IC50 entry is “inactive”.
As to `O=C(COC(=O)c1cccnc1)c1ccc(Cl)cc1`, the IC50 was > 79 µM (inactive).
In the case of `Cc1ccnc(SCc2cc(=O)c(O)co2)n1`, the IC50 was > 79 µM (inactive).
Regarding `O=C(Oc1coc(CSc2ncccn2)cc1=O)c1ccc(S(=O)(=O)N2CCCCC2)cc1`, the IC50 was > 79 µM (inactive).
As for `C=CCOc1ccc(CSc2nc(C)cc(C)n2)cc1Cl`, the IC50 was > 79 µM (inactive).
The result for `O=C(Oc1coc(CSc2ncccn2)cc1=O)c1cccc([N+](=O)[O-])c1` reads “inactive”; that for `CCN(CC)S(=O)(=O)c1ccc(C(=O)Oc2coc(CSc3ncccn3)cc2=O)cc1`, > 79 µM (inactive).
As to `Cc1cccc(C(=O)Oc2coc(CSc3nccc(C)n3)cc2=O)c1`, the IC50 was > 79 µM (inactive).
In the case of `COc1cccc(C(=O)Oc2coc(CSc3nccc(C)n3)cc2=O)c1`, the IC50 is > 79 µM (inactive).
For `Cc1cc(C)nc(SCc2ccc(O)c(Cl)c2)n1`, the IC50 is > 79 µM (inactive).
Consider `CC(C)OC(=O)CN1C(=O)C(=O)c2ccccc21`, for which the IC50 was > 79 µM (inactive).
In the case of `Cc1cc(C)nc(SCc2cc(=O)c(OC(=O)c3cc([N+](=O)[O-])ccc3Cl)co2)n1`, the IC50 result was “inactive”.
Consider `Cc1ccc(C(=O)Oc2coc(CSc3ncccn3)cc2=O)cc1C`, for which the IC50 was > 79 µM (inactive).
For `O=C(Oc1coc(CSc2ncccn2)cc1=O)c1ccc(S(=O)(=O)N2CCOCC2)cc1`, the IC50 was > 79 µM (inactive).
Take `Cc1c(O)ccc2c1OC1(CC2c2ccccc2Cl)CC(C)(C)NC(=S)N1` (stereo not given): the IC50 is > 79 µM (inactive).
`Cc1ccnc(SCc2cc(=O)c(OCc3ccccc3)co2)n1`: the IC50 is > 79 µM (inactive).
Turning to `O=C(Oc1coc(CSc2ncccn2)cc1=O)c1ccc(Cl)cc1`, the IC50 entry is “inactive”.
As to `CSc1cccc(N=C2C(=O)Nc3ccccc32)c1`, the IC50 was 9.84 µM.
As for `CC1(C)CC2(CC(c3ccccc3Cl)c3ccc(O)cc3O2)NC(=O)N1` (stereo not given), the IC50 is > 79 µM (inactive).
With `Cc1ccnc(SCc2cc(=O)c(OC(=O)c3ccc(F)cc3)co2)n1`, the IC50 is > 79 µM (inactive).
Regarding `Cc1c(C(=O)Oc2coc(CSc3ncccn3)cc2=O)cccc1[N+](=O)[O-]`, the IC50 entry is “inactive”.
Regarding `C=CCOc1cccc(CSc2nc(C)cc(C)n2)c1`, the IC50 was > 79 µM (inactive).
Under `Cc1ccccc1NCC(=O)c1ccc(Cl)cc1` stands 1.42 µM.
The result for `O=C(Oc1coc(CSc2ncccn2)cc1=O)c1ccc(-c2ccccc2)cc1` reads > 79 µM (inactive).
For the compound `O=c1cc(CCl)occ1O`, the IC50 is > 79 µM (inactive).
For `Cc1ccnc(SCc2cc(=O)c(OC(=O)c3ccc(Cl)cc3)co2)n1`, the IC50 was > 79 µM (inactive).
Consider `O=C(Oc1coc(CSc2ncccn2)cc1=O)c1ccc(Br)cc1`, for which the IC50 entry is “inactive”.
With `Cc1c(O)ccc2c1OC1(CC2c2ccccc2Cl)CC(C)(C)NC(=O)N1` (stereo not given), the IC50 was > 79 µM (inactive).
With `COc1ccc(C(=O)Oc2coc(CSc3ncccn3)cc2=O)cc1`, the IC50 was > 79 µM (inactive).
The result for `Cc1ccnc(SCc2cc(=O)c(OC(=O)c3cc(Cl)ccc3[N+](=O)[O-])co2)n1` reads “inactive”; that for `O=C(O)CN1C(=O)C(=O)c2ccccc21`, > 79 µM (inactive).
For the compound `Cc1cc(C)nc(SCc2cc(=O)c(OC(=O)c3cc(Cl)ccc3[N+](=O)[O-])co2)n1`, the IC50 was > 79 µM (inactive).
Under `COc1ccc(C(=O)Oc2coc(CSc3nccc(C)n3)cc2=O)cc1` stands > 79 µM (inactive); under `COc1cc(C(=O)Oc2coc(CSc3ncccn3)cc2=O)c([N+](=O)[O-])cc1OC`, > 79 µM (inactive); under `Cc1cc(C)nc(SCc2ccc(OC(=O)c3ccccc3)c(Cl)c2)n1`, > 79 µM (inactive).
In the case of `CN(C)S(=O)(=O)c1ccc(C(=O)Oc2coc(CSc3ncccn3)cc2=O)cc1`, the IC50 is > 79 µM (inactive).
The result for `COc1ccccc1NC(=O)CN1C(=O)C(=O)c2ccccc21` reads “inactive”; that for `Cc1ccnc(SCc2cc(=O)c(OC(=O)c3ccc(C(F)(F)F)cc3)co2)n1`, “inactive”; that for `N#Cc1ccc(C(=O)Oc2coc(CSc3ncccn3)cc2=O)cc1`, 6.59 µM.
As to `Cc1ccc(C(=O)Oc2coc(CSc3nccc(C)n3)cc2=O)cc1`, the IC50 was > 79 µM (inactive).
Consider `Cc1ccnc(SCc2cc(=O)c(OC(=O)c3cc([N+](=O)[O-])ccc3Cl)co2)n1`, for which the IC50 result is “inactive”.
For `C=CCOc1cccc(CSc2nccc(C)n2)c1`, the IC50 was > 79 µM (inactive).
For `Cc1ccc(NCC(O)c2ccccc2)cc1` (stereo not given), the IC50 was > 79 µM (inactive).
As for `CSC1=NC2(CC(c3ccccc3)c3cc(Cl)c(O)cc3O2)CC(C)(C)N1` (stereo not given), the IC50 was > 79 µM (inactive).
Turning to `O=C(Oc1coc(CSc2ncccn2)cc1=O)c1ccc(S(=O)(=O)N2CCCC2)cc1`, the IC50 is > 79 µM (inactive).
In the case of `Cc1cc(C)nc(SCc2cc(=O)c(OC(=O)c3ccc(Cl)c([N+](=O)[O-])c3)co2)n1`, the IC50 was 5.45 µM.
As to `Cc1ccc(C(=O)Oc2coc(CSc3ncccn3)cc2=O)cc1[N+](=O)[O-]`, the IC50 was 7.25 µM.
With `Cc1ccc(C(=O)Oc2coc(CSc3ncccn3)cc2=O)cc1`, the IC50 is > 79 µM (inactive).
The result for `C=CCOc1ccc(CSc2nc(C)cc(C)n2)cc1OC` reads > 79 µM (inactive).
As for `CC(C)Oc1ccc(C(=O)Oc2coc(CSc3ncccn3)cc2=O)cc1`, the IC50 is > 79 µM (inactive).
Consider `Cc1ccc(NCC(=O)c2ccccc2)cc1`, for which the IC50 is 2.53 µM.
Consider `Cc1ccnc(SCc2cc(=O)c(OC(=O)c3cccc([N+](=O)[O-])c3)co2)n1`, for which the IC50 entry was “inactive”.
With `COc1cc(CSc2nc(C)cc(C)n2)ccc1O`, the IC50 is > 79 µM (inactive).
Under `Cc1ccnc(SCc2cc(=O)c(OC(=O)c3ccccc3C)co2)n1` stands > 79 µM (inactive); under `C=CCSC1=NC2(CC(c3ccc(C)cc3)c3c(C)cc(OC(C)=O)cc3O2)CC(C)(C)N1` (stereo not given), “inactive”.
On to `CC1(C)CC2(CC(c3ccccc3Cl)c3ccc(OC(=O)c4ccccc4)cc3O2)NC(=S)N1` (stereo not given), for which the IC50 result is “inactive”.
For `COc1ccccc1NCC(=O)c1ccc(Cl)cc1`, the IC50 was 1.7 µM.
As for `CC1(C)CC2(CC(c3ccccc3Cl)c3cc(Cl)c(OC(=O)C4CC4)cc3O2)NC(=S)N1` (stereo not given), the IC50 entry is “inactive”.
`O=C(Oc1coc(CSc2ncccn2)cc1=O)c1ccc(F)cc1`: the IC50 was > 79 µM (inactive).
Take `CC1(C)CC2(CC(c3ccc(F)cc3)c3ccc(O)cc3O2)NC(=S)N1` (stereo not given): the IC50 is > 79 µM (inactive).
Take `O=c1cc(CSc2ncccn2)occ1O`: the IC50 is > 79 µM (inactive).
For `Cc1ccnc(SCc2cccc(O)c2)n1`, the IC50 is > 79 µM (inactive).
In the case of `Cc1ccnc(SCc2cc(=O)c(OC(=O)c3ccc(S(=O)(=O)N4CCCC4)cc3)co2)n1`, the IC50 was > 79 µM (inactive).
Take `C=CCSC1=NC2(CC(c3ccccc3)c3c(C)cc(O)cc3O2)CC(C)(C)N1` (stereo not given): the IC50 was > 79 µM (inactive).
For `Cc1cc(C)nc(SCc2cc(=O)c(OC(=O)c3ccc(C)c([N+](=O)[O-])c3)co2)n1`, the IC50 result was “inactive”.
`O=C(Oc1coc(CSc2ncccn2)cc1=O)c1ccccc1`: the IC50 was > 79 µM (inactive).
Under `Oc1cccc(CSc2ncccn2)c1` stands > 79 µM (inactive); under `Cc1cc(C)nc(SCc2cccc(O)c2)n1`, > 79 µM (inactive); under `Cc1ccnc(S(=O)(=O)Cc2cc(=O)c(OC(=O)c3ccc(Cl)c([N+](=O)[O-])c3)co2)n1`, 3.21 µM.
As to `Cc1ccc(N=C2C(=O)Nc3ccccc32)cc1`, the IC50 entry is “inactive”.
Take `Cc1ccnc(SCc2cc(=O)c(OC(=O)c3ccc(C)c([N+](=O)[O-])c3)co2)n1`: the IC50 was 4.7 µM.

Broadly, the IC50 is the concentration that gives 50% inhibition.

The record behind these values is PubChem BioAssay AID488803 (Sanford-Burnham Center for Chemical Genomics, 2010).
